Test: molar heat capacity at constant pressure; mn = molality of the nth substance listed, in mol/kg
Conditions: 100 kPa, Liquid, Flow calorimetry

[Cl][Cu][Cl] [copper chloride] + O
molar heat capacity at constant pressure [J/K/mol]
Conditions | 298.15 K | 303.15 K | 313.15 K | 323.15 K | 333.15 K | 343.15 K | 353.15 K | 363.15 K
m1 = 0.2971 | 74.06 | 74.34 | 74.86 | 75.29 | 75.6 | 75.85 | 75.98 | 76.05
m1 = 0.5433 | 73.82 | 74.14 | 74.68 | 75.1 | 75.41 | 75.6 | 75.69 | 75.68
m1 = 0.7083 | 73.51 | 73.84 | 74.42 | 74.85 | 75.16 | 75.34 | 75.34 | 75.3
m1 = 1.018 | 73.01 | 73.37 | 74 | 74.48 | 74.86 | 75.1 | 75.24 | 75.22
m1 = 1.448 | 72.53 | 72.93 | 73.62 | 74.19 | 74.61 | 74.9 | 75.05 | 75.05
m1 = 1.899 | 72.05 | 72.47 | 73.19 | 73.8 | 74.24 | 74.59 | 74.74 | 74.78
m1 = 2.012 | 72.27 | 72.71 | 73.51 | 74.13 | 74.61 | 74.94 | 75.12 | 75.12
m1 = 2.424 | 72.23 | 72.74 | 73.63 | 74.38 | 74.96 | 75.37 | 75.64 | 75.73
m1 = 2.954 | 72.36 | 72.91 | 73.85 | 74.59 | 75.16 | 75.52 | 75.71 | 75.71
m1 = 3.454 | 72.47 | 73.05 | 74.06 | 74.93 | 75.63 | 76.15 | 76.52 | 76.67
m1 = 4.036 | 72.69 | 73.32 | 74.4 | 75.31 | 76.01 | 76.5 | 76.79 | 76.89
m1 = 4.452 | 72.71 | 73.37 | 74.54 | 75.48 | 76.17 | 76.62 | 76.81 | 76.78

[Cl][Ni][Cl] [nickel chloride (NiCl2)] + O
molar heat capacity at constant pressure [J/K/mol]
Conditions | 298.15 K | 303.15 K | 313.15 K | 323.15 K | 333.15 K | 343.15 K | 353.15 K | 363.15 K
m1 = 0.1432 | 74.53 | 74.56 | 74.64 | 74.73 | 74.84 | 74.97 | 75.09 | 75.24
m1 = 0.3571 | 73.64 | 73.75 | 73.98 | 74.17 | 74.3 | 74.41 | 74.48 | 74.5
m1 = 0.7035 | 72.08 | 72.41 | 72.91 | 73.42 | 73.73 | 73.92 | 73.96 | 73.88
m1 = 0.9968 | 70.92 | 71.28 | 71.88 | 72.38 | 72.74 | 72.98 | 73.12 | 73.12
m1 = 1.24 | 70.61 | 70.99 | 71.67 | 72.22 | 72.63 | 72.92 | 73.06 | 73.08
m1 = 1.53 | 70.09 | 70.49 | 71.18 | 71.73 | 72.15 | 72.44 | 72.59 | 72.59
m1 = 1.874 | 69.74 | 70.16 | 70.89 | 71.5 | 71.93 | 72.23 | 72.41 | 72.45
m1 = 2.241 | 69.49 | 69.96 | 70.74 | 71.39 | 71.88 | 72.2 | 72.37 | 72.4
m1 = 2.608 | 69.48 | 69.99 | 70.89 | 71.63 | 72.2 | 72.64 | 72.89 | 72.98
m1 = 3.614 | 69.27 | 69.86 | 70.88 | 71.73 | 72.42 | 72.94 | 73.29 | 73.49
m1 = 4.102 | 69.42 | 70.04 | 71.12 | 72.02 | 72.69 | 73.18 | 73.48 | 73.56

Reference: the NIST ThermoML archive (doi:10.1021/acs.jced.7b00483)
